Measured values reported in patent US20230121313A1 (priority 2019, published 2023).

Columns and labels:
[1] = test system: subjects with MDD at imminent risk for suicide; conditions: human, in vivo, other: intranasal, 84 mg
Method: The CADSS was measured prior to the start of each dose, at 40 minutes, 2 hours, and 4 hours postdose.

[2] = test system: subjects with MDD at imminent risk for suicide; experiment: Beck Hopelessness Scale (BHS), Study […]2001; type: in vivo, human; conditions: 84 mg; for BHS total score change, Diff. of LS Means (minus Placebo): ANCOVA LOCF; for BHS total score, change from baseline, mean / BHS total score, change from baseline, median / BHS total score, mean / BHS total score, median: LOCF, N 35
Source text: • a. Changes from baseline to Day 2 and Day 25 for the MADRS total score • b. Changes from baseline to Day 1 4-hours postdose, Day 2 and Day 25 for the MADRS Suicide Item • c. Changes from baseline to Day 1 4-hours postdose, Day 2, and Day 25 for the clinical global judgment of suicide risk from the Suicide Ideation and Behavior Assessment Tool (SIBAT) • d. Sustained response (Onset of Clinical Response) defined as at least 50% reduction from baseline in MADRS total score with onset on Day 1 that is maintained through the end of the double-blind phase (Day 25) • e. Changes from baseline to Day 1 4-hours postdose, Day 2, and Day 25 for the Beck Scale for Suicidal Ideation (BSS) • f. Changes from baseline to Day 1 4-hours postdose and Day 25 for the Beck Hopelessness Scale
The BHS is a self-reported measure to assess one's level of negative expectations or pessimism regarding the future. It consists of 20 true-false items that examine the respondent's attitude over the past week by either endorsing a pessimistic statement or denying an optimistic statement. For every statement, each response is assigned a score of 0 or 1. The total BHS score is a sum of item responses and ranges from 0 to 20, with a higher score representing a higher level of hopelessness.

CN[C@]1(c2ccccc2Cl)CCCCC1=O [esketamine, (S)-2-(2-chlorophenyl)-2-(methylamino)cyclohexanone]
CADSS dissociative and perceptual change symptoms resolved by (postdose) [1]: ≤ 2 h | BHS total score change, Diff. of LS Means (minus Placebo) ([2]; Day 1 (DB): 4 H): −1.5 | BHS total score, change from baseline, mean ([2]; Day 1 (DB): 4 H): −4.1 | BHS total score, change from baseline, median ([2]; Day 1 (DB): 4 H): −2.0 | BHS total score, mean ([2]; Day 1 (DB): 4 H): 12.3 | BHS total score, median ([2]; Day 1 (DB): 4 H): 14.0 | BHS total score change, Diff. of LS Means (minus Placebo) ([2]; End Point (DB)): −2.3 | BHS total score, change from baseline, mean ([2]; End Point (DB)): −10.3 | BHS total score, change from baseline, median ([2]; End Point (DB)): −11.0 | BHS total score, mean ([2]; End Point (DB)): 6.2 | BHS total score, median ([2]; End Point (DB)): 4.0
